Source: ChEMBL document CHEMBL1127417, “Multisubstrate inhibition of 4-hydroxybenzoate 3-monooxygenase” (J Med Chem, 1994)

Legend:
[1] = molecular target: T1, p-hydroxybenzoate hydroxylase (Pseudomonas fluorescens, UniProt P00438); test: Binding affinity against p-hydroxybenzoate hydroxylase (PHBH) from Pseudomonas fluorescence competing with NADPH
[2] = molecular target: T1, p-hydroxybenzoate hydroxylase; test: Binding affinity against p-hydroxybenzoate hydroxylase (PHBH) from Pseudomonas fluorescence competing with p-hydroxy benzoic acid
[3] = molecular target: T1, p-hydroxybenzoate hydroxylase; test: Inhibitory concentration against p-hydroxybenzoate hydroxylase (PHBH) from Pseudomonas fluorescence

T1 sequence (P00438 whole entry): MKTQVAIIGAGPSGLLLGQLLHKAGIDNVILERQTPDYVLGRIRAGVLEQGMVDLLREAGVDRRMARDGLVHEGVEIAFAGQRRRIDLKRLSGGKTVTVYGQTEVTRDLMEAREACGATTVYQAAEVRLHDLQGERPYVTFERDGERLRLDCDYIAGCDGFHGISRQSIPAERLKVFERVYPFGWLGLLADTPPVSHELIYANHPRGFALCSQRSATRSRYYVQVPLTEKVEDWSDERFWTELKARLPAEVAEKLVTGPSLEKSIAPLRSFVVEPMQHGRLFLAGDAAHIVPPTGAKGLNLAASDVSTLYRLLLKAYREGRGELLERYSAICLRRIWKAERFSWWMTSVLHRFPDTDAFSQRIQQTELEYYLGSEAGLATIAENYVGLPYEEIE

| Ki [1] | Ki [2] | IC50 [3] | SMILES |
| --- | --- | --- | --- |
| 69 nM | 59 nM | – | O=C(O)c1ccc(O)cc1OCc1ccccc1 |
| – | – | 100 µM | O=C(O)c1ccc(O)c(OCc2ccccc2)c1 |
